PMC7127030 (Bioorganic & Medicinal Chemistry Letters, 2009)
pIC50: −log10 of the molar value.

Columns and labels:
[1] = target: T1, SCV Hel duplex DNA-unwinding activity (Severe acute respiratory syndrome coronavirus, UniProt P0C6X7); format: biochemical, SARS coronavirus
[2] = target: T1, SCV Hel duplex DNA-unwinding activity; details: read-out: IC50 SCV Hel duplex DNA-unwinding; cited from earlier work

Row | SMILES | inhibition of helicase duplex DNA-unwinding activity [1] | pIC50 [2]
1 | O=C(O)/C(O)=C/C(=O)c1ccc(OCc2ccc(Cl)cc2)cc1 [Compound 2] | neither 2 nor 3 showed inhibition | 
2 | O=C(O)/C(O)=C/C(=O)c1cccc(OCc2ccccc2)c1 [Compound 3] | neither 2 nor 3 showed inhibition | 
3 | COc1cc(C23OC4(O)CC(O)(CC(O)(C4)O2)O3)ccc1O [vanillinbananin] |  | 5.57
